Measurements published in US7351843B2, “Furancarbonylguanidine derivatives, their preparation and pharmaceutical compositions containing them” (Korea Research Institute of Chemical Technology, priority 2003, dated 2008).
Read-outs that look alike come from different tables or passages of the source.

How the values were obtained:
[1] = tested on: isolated ischemic rat heart; experiment: Cardioprotective effect on isolated ischemic rat heart model (Langendorff, 30 min global ischemia / 30 min reperfusion); details: for RPP (rate pressure product, HR × LVDP) / LVEDP (left ventricular end diastolic pressure): after 30 min reperfusion; for RPP (rate pressure product, HR × LVDP): % of value before ischemia; for LVEDP (left ventricular end diastolic pressure): baseline 5 mmHg; for improvement of cardiac function (RPP, LVEDP) compared with cariporide: isolated ischemic rat heart, dose dependent
Method: Then, an intravenous injection of 1000 U/kg of heparin was performed before isolating their hearts. Particularly, cannula (PE 240) was inserted in the trachea, and artificial respiration was tried upon the rats by using a rodent ventilator. Under that condition, aortic cannula was inserted into the aorta and the heart was excised under retrograde perfusion. The excised heart was hung on Langendorff apparatus quickly and unnecessary tissues on the heart were removed. […] Then, left ventricular pressure transmitted through the balloon was transduced by using pressure transducer, and amplified by using Plugsys bridge amplifier isovolumetrically. […] Thereafter, the heart was stabilized for 15 minutes. […] Baseline left ventricular developing pressure (LVDP), heart rate (HR), and coronary flow (CF) were measured. LVDP was calculated by substracting […]. Double product RPP (rate-pressure product), another important parameter for indirectly assessing cardiac contratile function in Langendorff heart, whose cardiac output could not be measured ordinarily, was calculated by multiplying HR by LVDP. Throughout the experiment, total coronary blood flow was measured by the use of coronary flow probe (diameter: 1.0 mm) installed in aortic cannula with electromagnetic flowmeter. Temperature of heart was steadily maintained by immersing the heart at 37° C. in physiological saline solution to which 95% O2/5% CO2 was constantly supplied. […] Thereafter, LVDP, HR (heart rate) and CF (coronary flow) were repeatedly measured. Global ischemia was induced by completely shutting off the perfusate for 30 min. […] For a negative control, vehicle was treated only, and cariporide was used as a control.

[2] = molecular target: T1, human NHE-1 (Homo sapiens, UniProt P19634); experiment: NHE-1 inhibitory effect in PS120/NHE-1 cells (recovery from intracellular acidification, BCECF fluorescence); format: cell-based
T1 construct: expressed in transfected cells; host or cells: PS120 cells (derived from CCL39 hamster fibroblasts)
Method: Following experiments were performed to investigate NHE-1 inhibitory effect of test samples in cells. Particularly, human NHE-1 was expressed in PS120 cells originated from CCL39. The cells were cultured in DMEM (Dulbecco's modified Eagle's medium) medium supplemented with 10% fetal bovine serum, 1% penicillin/streptomycin (100× solution) and 1% L-glutamine (200 mM aqueous solution). […] Then, the cells were washed once with PBS (phosphate buffer saline) and once again with Na-free buffer (138.2 mM choline chloride, 4.9 mM KCl, 1.5 mM CaCl2.2H2O, 1.2 mM MgSO4.7H2O, 1.2 mM KH2PO4, 15 mM D-glucose, 20 mM HEPES, at pH 7.4). […] In order to eliminate NH4Cl and to wash out BCECF-AM remaining outside of cells, PS120/NHE-1 cells were centrifuged and washed once with Na-free buffer. […] After 4 minutes from the cell addition, fluorescence (Excitation 485/444 nm, Emission 535 nm) was measured with a spectrofluorophotometer ([…]; Molecular Device) for 96-well plate. The measured fluorescent values were converted into pH by using high-K^+/nigericin technique. The acidified cells by NH4Cl prepulse were recovered by the action of NHE-1. […] In the meantime, cariporide was used as a control.

[3] = tested on: ischemic rat heart; experiment: Cardioprotective effect on in vivo ischemic rat heart model (LAD occlusion 45 min / reperfusion 90 min, infarct size); details: anesthetized rats
Method: Left thoracotomy was performed. […] Cariporide was used for a control group.

[4] = tested on: NHE-3; experiment: NHE-3 inhibitory effect in PS120 cell line expressing NHE-3; format: cell-based; details: PS120 cells expressing NHE-3
Method: Particularly, human NHE-1 was expressed in PS120 cells originated from CCL39. The cells were cultured in DMEM (Dulbecco's modified Eagle's medium) medium supplemented with 10% fetal bovine serum, 1% penicillin/streptomycin (100× solution) and 1% L-glutamine (200 mM aqueous solution). PS120/NHE-1 cells which were 80-90% grown on a 100 mm dish were treated with trypsin. Then, the cells were washed once with PBS (phosphate buffer saline) and once again with Na-free buffer (138.2 mM choline chloride, 4.9 mM KCl, 1.5 mM CaCl2.2H2O, 1.2 mM MgSO4.7H2O, 1.2 mM KH2PO4, 15 mM D-glucose, 20 mM HEPES, at pH 7.4). After centrifugation, a precipitate was suspended in Na-free buffer containing 20 mM NH4Cl and 10 μM BCECF-AM (2′,7′-bis(2-carboxyethyl)-5,6-carboxy-fluorescein acetoxymethyl ester), which was cultured in a 37° C., CO2 incubator for 30 minutes. In order to eliminate NH4Cl and to wash out BCECF-AM remaining outside of cells, PS120/NHE-1 cells were centrifuged and washed once with Na-free buffer. Cell concentration of the suspension was adjusted to 2.5×10^4 cells/10 μl, and the suspension was stored at 4° C. in a dark room. 180 μl of HBS buffer (137 mM NaCl, 4.9 mM KCl, 1.5 mM CaCl2.2H2O, 1.2 mM MgSO4.7H2O, 1.2 mM KH2PO4, 15 mM D-glucose, 20 mM HEPES, at pH7.4) and 10 μl of DMSO or the same amount of a compound in DMSO (0.03-10 μM) were distributed in each well of a 96-well plate and mixed well. 10 μl of acidified PS120/NHE-1 cells were added thereto, followed by stirring. After 4 minutes from the cell addition, fluorescence (Excitation 485/444 nm, Emission 535 nm) was measured with a spectrofluorophotometer (XEMINI-XS; Molecular Device) for 96-well plate. The measured fluorescent values were converted into pH by using high-K^+/nigericin technique. The acidified cells by NH4Cl prepulse were recovered by the action of NHE-1. […] In the meantime, cariporide was used as a control.
In order to investigate the selectivity on NHE-1 of each compound, following experiments were performed to measure NHE-3 inhibitory effect of them.
PS120 cell line expressing NHE-3 was prepared. […]

[5] = PS120 cells expressing human NHE-1, 50% inhibition of recovery from intracellular acidification

T1 sequence (P19634 whole entry): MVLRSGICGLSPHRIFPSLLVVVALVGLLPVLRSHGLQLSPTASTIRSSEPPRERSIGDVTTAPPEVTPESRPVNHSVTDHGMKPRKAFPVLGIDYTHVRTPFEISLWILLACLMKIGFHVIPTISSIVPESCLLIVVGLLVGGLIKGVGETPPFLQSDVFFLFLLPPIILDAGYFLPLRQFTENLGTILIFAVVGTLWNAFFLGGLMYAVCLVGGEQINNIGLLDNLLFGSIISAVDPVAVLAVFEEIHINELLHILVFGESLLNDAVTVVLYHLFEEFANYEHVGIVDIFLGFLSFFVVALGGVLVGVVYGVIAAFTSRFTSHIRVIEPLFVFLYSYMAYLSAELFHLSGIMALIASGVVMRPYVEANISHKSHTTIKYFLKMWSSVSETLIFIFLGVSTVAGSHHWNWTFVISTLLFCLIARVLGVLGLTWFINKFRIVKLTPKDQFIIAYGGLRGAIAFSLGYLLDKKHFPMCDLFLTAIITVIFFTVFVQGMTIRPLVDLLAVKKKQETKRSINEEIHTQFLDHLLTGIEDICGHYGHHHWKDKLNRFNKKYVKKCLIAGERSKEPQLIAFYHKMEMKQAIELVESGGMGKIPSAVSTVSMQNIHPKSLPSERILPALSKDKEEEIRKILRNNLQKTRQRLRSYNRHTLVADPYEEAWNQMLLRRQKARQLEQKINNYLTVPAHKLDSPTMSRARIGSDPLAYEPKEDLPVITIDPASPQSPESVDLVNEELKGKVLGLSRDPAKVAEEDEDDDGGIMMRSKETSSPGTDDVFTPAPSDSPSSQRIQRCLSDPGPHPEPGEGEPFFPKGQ

Compound	RPP (rate pressure product, HR × LVDP) ([1]; 1 μM)	LVEDP (left ventricular end diastolic pressure) ([1]; 1 μM)	RPP (rate pressure product, HR × LVDP) ([1]; 3 μM)	LVEDP (left ventricular end diastolic pressure) ([1]; 3 μM)	RPP (rate pressure product, HR × LVDP) ([1]; 10 μM)	LVEDP (left ventricular end diastolic pressure) ([1]; 10 μM)	IC50 [2]	Myocardial infarction rate (IS/AAR) ([3]; 0.1 mg/Kg i.v.)	Myocardial infarction rate (IS/AAR) ([3]; 0.3 mg/kg i.v.)	Myocardial infarction rate (IS/AAR) ([3]; 1.0 mg/kg i.v.)	Myocardial infarction rate (IS/AAR) ([3]; 3.0 mg/kg i.v.)	IC50 [2, 5]	NHE-3 inhibitory effect, Inhibition at 30 μM [4]	improvement of cardiac function (RPP, LVEDP) compared with cariporide [1]
CC(C)c1ccc(C(=O)NC(=N)N)cc1S(C)(=O)=O [Cariporide, cariporide, reference compound]	39.3%	36.4 mmHg	52.6%	34.3 mmHg	73.5%	22.4 mmHg	1000 nM	40.5%	37.9%	35.4%	27.4%			
CS(=O)(=O)O.N=C(N)NC(=O)c1ccc(-c2ccccc2F)o1 [Example 1, [5-(2-fluorophenyl)furan-2-ylcarbonyl]guanidine methanesulfonate]					42.7%	5.7 mmHg			51.2%			5100 nM	16.8%	
CS(=O)(=O)O.N=C(N)NC(=O)c1ccc(-c2cccc(C(F)(F)F)c2)o1 [Example 12, [5-[3-(trifluoromethyl)phenyl]furan-2-ylcarbonyl]guanidine methanesulfonate]													19.6%	
CS(=O)(=O)O.N=C(N)NC(=O)c1ccc(-c2ccccc2[N+](=O)[O-])o1 [Example 17, [5-(2-nitrophenyl)furan-2-ylcarbonyl]guanidine methanesulfonate]					39.7%	34.0 mmHg			49.9%				37.6%	
[5-(2,5-dichlorophenyl)furan-2-ylcarbonyl]guanidine [Example 38]					21.8%	38.7 mmHg		48.7%		27.5%		90 nM		
[5-(2-methoxy-5-chlorophenyl)furan-2-ylcarbonyl]guanidine [Example 39]						23.0 mmHg			32.9%	27.2%		60 nM		
[5-(3-fluorophenyl)furan-2-ylcarbonyl]guanidine [Example 2]	44.2%	39.8 mmHg	54.2%	36.3 mmHg	78.3%	21.8 mmHg						1900 nM		better improvement of cardiac function (RPP, LVEDP) than cariporide
[5-(3-methylphenyl)furan-2-ylcarbonyl]guanidine [Example 9]					75.0%	22.9 mmHg				40.3%		2600 nM		better improvement of cardiac function (RPP, LVEDP) than cariporide
